PMC6956158, “In Vitro and In Vivo Assessment of Metabolic Drug Interaction Potential of Dutasteride with Ketoconazole” (Pharmaceutics, 2019)

How the values were obtained:
[1] = NADPH-dependent metabolism (disappearance) of DUT in rat liver microsomes; type: in vitro ADME; details: RLM
Protocol: In vitro metabolism studies in RLM and HLM were conducted as previously reported with slight modifications. To investigate the NADPH-dependent metabolism (via phase I enzymes including CYPs) of DUT in RLM and HLM, the disappearance of DUT at various concentrations ranging from 1 to 100 μM in the presence of NADPH was determined in RLM and HLM. The substrate (DUT) concentration ([S]; μM) versus the initial metabolic rate (V; pmol/min/mg protein) data were interpreted based on the Michaelis–Menten kinetics, and relevant parameters were estimated by nonlinear regression analysis (GraphPad Prism ver. 5.01; GraphPad Software, San Diego, CA, USA) based on the following Michaelis–Menten equation: V = Vmax × [S]/Km + [S] where Vmax and Km are the maximal metabolic rate and Michaelis–Menten constant, respectively. The intrinsic metabolic clearance (CLint) was calculated by dividing Vmax by Km. The unbound Km (Km,u) was calculated as the Km multiplied by the unbound fraction in microsomes (fu,mic). The unbound CLint (CLint,u) was calculated as the CLint divided by the fu,mic.
To investigate the metabolic interaction potential between DUT and KET, the disappearance of DUT (5 μM) in RLM and HLM was determined under the absence and presence of KET at various concentrations ranging from 1 to 5000 nM. A microsomal reaction mixture was prepared as follows (total volume: 0.2 mL): 1 mM NADPH, 10 mM MgCl2, substrate (DUT), and inhibitor (KET), RLM or HLM (1 mg/mL), and 50 mM phosphate buffer. […] The unbound fractions of DUT in rat plasma, RLM, human plasma, and HLM were measured using a rapid equilibrium dialysis (RED) device (Thermo Fisher Scientific, Inc., Waltham, MA, USA) as described in a previous study. […] The fraction unbound was calculated as the ratio of the drug concentrations in the “buffer” chamber to those in the “sample” chamber. The blood-to-plasma concentration ratio (RB) of DUT was determined as described previously. […] The concentrations of DUT in the plasma sample were determined by the validated HPLC analysis.

[2] = Unbound fraction by rapid equilibrium dialysis, human plasma; type: in vitro ADME
Protocol: To investigate the metabolic interaction potential between DUT and KET, the disappearance of DUT (5 μM) in RLM and HLM was determined under the absence and presence of KET at various concentrations ranging from 1 to 5000 nM. A microsomal reaction mixture was prepared as follows (total volume: 0.2 mL): 1 mM NADPH, 10 mM MgCl2, substrate (DUT), and inhibitor (KET), RLM or HLM (1 mg/mL), and 50 mM phosphate buffer. At 0 and 90 min after starting the metabolic reaction, a 50 μL aliquot of microsomal incubation mixture was sampled and immediately transferred into a clean 1.5 mL microcentrifuge tube containing 100 μL cold ACN with an internal standard (celecoxib at 400 ng/mL) to stop the metabolic reaction. After vortex mixing and centrifugation at 15,000× g for 10 min, a 100 μL aliquot of the supernatant was stored at −80 °C. The unbound fractions of DUT in rat plasma, RLM, human plasma, and HLM were measured using a rapid equilibrium dialysis (RED) device (Thermo Fisher Scientific, Inc., Waltham, MA, USA) as described in a previous study. […] The fraction unbound was calculated as the ratio of the drug concentrations in the “buffer” chamber to those in the “sample” chamber. The blood-to-plasma concentration ratio (RB) of DUT was determined as described previously. […] The concentrations of DUT in the plasma sample were determined by the validated HPLC analysis.

[3] = Basic (simple static) model prediction of clinical DUT-KET interaction; parameters: species or system human; details: clinical prediction from HLM data, R = 1 + Imax,u / Ki
Protocol: Supplementary Materials: In Vitro and In Vivo
Assessment of Metabolic Drug Interaction Potential of Dutasteride with Ketoconazole
Table S1. Previous literatures on bioanalytical methods for DUT using HPLC system coupled with ultraviolet-visible (UV/Vis) and tandem mass (MS/MS) detector.
Detector Matrix Sample Sample Preparation Mobile Phase Conc. Range Validation Ref.
LC-MS/MS Human plasma 300 µL LLE Isocratic 0.1-25 ng/mL Full
LC-MS/MS Human plasma 500 µL LLE Gradient 0.1-25 ng/mL Full
LC-MS/MS Human plasma 500 µL SPE Gradient 1-100 ng/mL Full
LC-MS/MS Human plasma 500 µL SPE Isocratic 0.1-10 ng/mL Full
LC-MS/MS Human plasma 900 µL LLE Isocratic 0.5-50 ng/mL Full
LC-MS/MS Human plasma 1000 µL LLE Gradient 0.05-4 ng/mL Full
LC-MS/MS Human Serum 2000 µL LLE NR 0.025-2.5 ng/mL Partial
LC-MS/MS Human Urine 5000 µL SPE Gradient NR Partial
LC-MS/MS Rat plasma 100 µL LLE Isocratic 1-500 ng/mL Partial
LC-MS/MS Rat plasma 100 µL LLE Isocratic 5-400 ng/mL Partial
HPLC-UV Rat blood 100 µL Deproteinization Gradient NR Partial […]
where the R is the predicted ratio of the AUC of DUT in the presence and absence of KET, the Imax,u is the maximum unbound plasma concentration of KET, and the Ki is the unbound inhibition constant of KET determined in vitro. Since IC50 only was determined in this study, it was converted to Ki using the following equation for competitive inhibition. […]

[4] = cited from earlier work

For `C[C@]12C=CC(=O)N[C@@H]1CC[C@@H]1[C@@H]2CC[C@]2(C)[C@@H](C(=O)Nc3cc(C(F)(F)F)ccc3C(F)(F)F)CC[C@@H]12` [DUT, Dutasteride], the Vmax ([1]; DUT 1 to 100 μM, NADPH) was 114 ± 10 pmol/min/mg protein, the microsomal CLint ([1]; Sprague-Dawley, rat, rat liver microsomes, Vmax divided by Km) was 3.45 ± 0.37 µL/min/mg and the Km ([1]; rat, rat liver microsomes, DUT 1 to 100 μM, NADPH) was 33.3 ± 3.6 µM. For the same compound, the fraction unbound at 5 μM ([2]; DUT 5 μM, RED device) was 0.0078, the “fraction of unbound DUT, presence versus absence of KET” value ([2]; DUT and KET 5 μM, n = 5) was “no significant differences” and the “R, predicted ratio of the AUC of DUT in the presence and absence of KET” value [3] was 2.88. For the same compound, the “steady-state serum DUT concentration, median” value ([4]; healthy humans, 0.5 mg DUT once-daily for more than 6 months) was 38 ng/mL, the terminal half-life ([4]; humans, after reaching a steady state) was “approximately 5 weeks” and the “unchanged DUT excreted in the urine” value ([4]; humans) was “trace amounts”.
